Measured values: article PMC5431781, “Structural studies of the periplasmic portion of the diguanylate cyclase CdgH from Vibrio cholerae” (Scientific Reports, 2017)
Where two headings read alike, the source gives them in different places.

Legend:
LAOBP = target: LAOBP; set-up: method as in PMID 1400387; details: cited from earlier work
[1] = target: PBPb-I domain of CdgH (residues 46–250) (Vibrio cholerae, UniProt Q9KT38); assay type: binding
Chain of PBPb-I domain of CdgH (residues 46–250) (Q9KT38 46-250 limits assumed): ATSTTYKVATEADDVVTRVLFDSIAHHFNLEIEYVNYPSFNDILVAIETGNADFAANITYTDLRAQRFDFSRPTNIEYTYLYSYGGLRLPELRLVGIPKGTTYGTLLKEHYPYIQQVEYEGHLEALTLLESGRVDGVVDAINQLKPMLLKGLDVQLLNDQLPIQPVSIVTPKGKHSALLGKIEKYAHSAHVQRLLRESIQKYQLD

## N=C(N)NCCC[C@H](N)C(=O)O [L-Arg, L-arginine]
LAOBP
  Kd: 0.014 µM
[1]; pH 8
  ΔH: -12.87 ± 0.04 kcal/mol

## NC(=O)CC[C@H](N)C(=O)O [L-Gln, L-glutamine]
[1]; pH 8
  ΔH: -3.57 ± 1.02 kcal/mol

## N[C@@H](Cc1c[nH]cn1)C(=O)O [L-His, L-histidine]
[1]; pH 8
  ΔH: -7.90 ± 0.28 kcal/mol

## NCCCC[C@H](N)C(=O)O [L-Lys, L-lysine]
[1]
  binding affinity weaker than that with L-arginine: about 18 fold
[1]; pH 8
  ΔH: -6.02 ± 0.05 kcal/mol

## NCCC[C@H](N)C(=O)O [L-Orn, L-ornithine]
[1]; pH 8
  Ka: 240000 ± 33700 M⁻¹
  ΔH: -3.61 ± 0.08 kcal/mol
[1]; pH 8, read-out: Kd
  Kd: 4.17 µM

## N[C@@H](CC(=O)O)C(=O)O [L-aspartate]
[1]; pH 8
  Kd: no measurable binding affinity
